“And” between values parts separate entries of the source, which are not always exact repeats. Equal values may be shown once. Results filed as inconclusive are left out. Rule for the calls: active = survival T/C of 150% or more; inactive = T/C below 125% in these data.
Test system: Madison 109 lung carcinoma i.m., mice, median survival
Assay: NCI In Vivo Anticancer Drug Screen. Data for tumor model Madison 109 Lung Carcinoma (intramuscular) in unknown mice
Details: endpoint: median survival time, higher = longer survival
Procedure: The antitumor activity of compounds was measured in mice bearing transplantable tumors. Survival or tumor size were measured and the results are expressed as the measurement made in the treated group (T) divided by the measurement made in the vehicle treated control group (C). The tumor model used in this assay is Madison 109 Lung Carcinoma (intramuscular) in unknown mice

[1] = dose: 50.0 mg/kg/injection, schedule: Q01DX009 (ip), vehicle: other
[2] = dose: 400.0 mg/kg/injection, schedule: Q01DX009 (ip), vehicle: other
[3] = dose: 0.1 mg/kg/injection, schedule: Q01DX009 (ip), vehicle: saline
[4] = dose: 0.2 mg/kg/injection, schedule: Q01DX009 (ip), vehicle: saline
[5] = dose: 0.4 mg/kg/injection, schedule: Q01DX009 (ip), vehicle: saline
[6] = dose: 0.8 mg/kg/injection, schedule: Q01DX009 (ip), vehicle: saline
[7] = dose: 10.0 mg/kg/injection, schedule: Q01DX009 (ip), vehicle: water
[8] = dose: 40.0 mg/kg/injection, schedule: Q01DX009 (ip), vehicle: water
[9] = dose: 1.0 mg/kg/injection, schedule: Q01DX009 (ip), vehicle: saline
[10] = dose: 20.0 mg/kg/injection, schedule: Q01DX009 (ip), vehicle: water

Measured: T/C

CCN(CC)CCOc1ccc2c(c1)C(=O)c1cc(OCCN(CC)CC)ccc1-2
inactive: dose: 25.0 mg/kg/injection, schedule: Q04DX009 (ip), vehicle: Klucel (hydroxypropylcellulose) (HPC) 111 % of control | dose: 50.0 mg/kg/injection, schedule: Q04DX009 (ip), vehicle: Klucel (hydroxypropylcellulose) (HPC) 114 % of control | dose: 75.0 mg/kg/injection, schedule: Q04DX009 (ip), vehicle: Klucel (hydroxypropylcellulose) (HPC) 102 % of control

C[C@]12C=CC(=O)C=C1CC[C@@H]1[C@@H]2C(=O)C[C@@]2(C)[C@H]1CC[C@]2(O)C(=O)CO
inactive: dose: 5.0 mg/kg/injection, schedule: Q01DX009 (ip), vehicle: saline 113 % of control | dose: 10.0 mg/kg/injection, schedule: Q01DX009 (ip), vehicle: saline 117 % of control | dose: 40.0 mg/kg/injection, schedule: Q01DX009 (ip), vehicle: saline 120 % of control

Cc1c2ccncc2c(C)c2c1[nH]c1ccccc12
inactive: dose: 2.0 mg/kg/injection, schedule: Q01DX009 (ip), vehicle: other 119 % of control | dose: 4.0 mg/kg/injection, schedule: Q01DX009 (ip), vehicle: other 121 % of control | dose: 8.0 mg/kg/injection, schedule: Q01DX009 (ip), vehicle: other 111 % of control | dose: 16.0 mg/kg/injection, schedule: Q01DX009 (ip), vehicle: other 111 % of control

CC1=C(/C=C/C(C)=C/C=C/C(C)=C/C(=O)O)C(C)(C)CCC1
inactive: dose: 25.0 mg/kg/injection, schedule: Q01DX009 (ip), vehicle: other 94 % of control | [1] 95 % of control

NC(=O)c1ncn(C2OC(CO)C(O)C2O)n1 (stereo unspecified)
inactive: dose: 12.5 mg/kg/injection, schedule: Q01DX009 (ip), vehicle: water 103 % of control | dose: 25.0 mg/kg/injection, schedule: Q01DX009 (ip), vehicle: water 100 % of control | dose: 50.0 mg/kg/injection, schedule: Q01DX009 (ip), vehicle: water 109 % of control | dose: 100.0 mg/kg/injection, schedule: Q01DX009 (ip), vehicle: water 115 % of control

CN(C)c1nc(N(C)C)nc(N(C)C)n1
inactive: dose: 20.0 mg/kg/injection, schedule: Q01DX009 (ip), vehicle: other 89 % of control | dose: 40.0 mg/kg/injection, schedule: Q01DX009 (ip), vehicle: other 96 % of control

O=C1OC(C(O)CO)C(O)=C1O (stereo unspecified)
inactive: [2] 98 % of control | dose: 800.0 mg/kg/injection, schedule: Q01DX009 (ip), vehicle: other 96 % of control | dose: 1600.0 mg/kg/injection, schedule: Q01DX009 (ip), vehicle: other 98 % of control

CO[C@@]12[C@H](COC(N)=O)C3=C(C(=O)C(C)=C(N)C3=O)N1C[C@@H]1N[C@@H]12
inactive: [3] 106 % of control | [4] 96 % of control | [5] 108 % of control | [6] 109 % of control

S=P(N1CC1)(N1CC1)N1CC1
inactive: dose: 1.5 mg/kg/injection, schedule: Q01DX009 (ip), vehicle: water 110 % of control | dose: 2.5 mg/kg/injection, schedule: Q01DX009 (ip), vehicle: water 101 % of control | dose: 3.0 mg/kg/injection, schedule: Q01DX009 (ip), vehicle: water 92 % of control | dose: 5.0 mg/kg/injection, schedule: Q01DX009 (ip), vehicle: water 109 % of control | dose: 6.0 mg/kg/injection, schedule: Q01DX009 (ip), vehicle: water 105 % of control | [7] 107 % of control | [8] 110 % of control

C1CN1c1nc(N2CC2)nc(N2CC2)n1
inactive: dose: 0.02 mg/kg/injection, schedule: Q01DX009 (ip), vehicle: saline 101 % of control | dose: 0.05 mg/kg/injection, schedule: Q01DX009 (ip), vehicle: saline 110 % of control | [3] 112 % of control | [4] 102 % of control

N[C@@H](Cc1ccc(N(CCCl)CCCl)cc1)C(=O)O
inactive: [4] 102 % of control | [5] 100 % of control | dose: 0.6 mg/kg/injection, schedule: Q01DX009 (ip), vehicle: saline 100 % of control | [6] 111 % of control | [9] 105 % of control

COc1ccc(C[C@H](N)C(=O)NC2C(CO)OC(n3cnc4c(N(C)C)ncnc43)C2O)cc1 (stereo partly specified)
inactive: [7] 104 % of control | [10] 105 % of control | [8] 104 % of control | dose: 80.0 mg/kg/injection, schedule: Q01DX009 (ip), vehicle: water 105 % of control

O=S(=O)(n1ccnc1)C(F)(F)F
inactive: dose: 5.0 mg/kg/injection, schedule: Q01DX001 (ip), vehicle: saline 98 % of control | dose: 8.4 mg/kg/injection, schedule: Q01DX001 (ip), vehicle: saline 88 % of control | dose: 14.0 mg/kg/injection, schedule: Q01DX001 (ip), vehicle: saline 92 % of control

NC(=O)c1cn[nH]c1N
inactive: [1] 97 % of control | dose: 100.0 mg/kg/injection, schedule: Q01DX009 (ip), vehicle: other 94 % of control | dose: 200.0 mg/kg/injection, schedule: Q01DX009 (ip), vehicle: other 92 % of control | [2] 102 % of control

CC1OC(O[C@H]2/C=C/C=C/C=C/C=C/C=C/C=C/C=C/[C@H](C)[C@@H](O)[C@@H](C)[C@H](C)OC(=O)C[C@H](O)C[C@H](O)CC[C@@H](O)[C@H](O)C[C@H](O)C[C@]3(O)C[C@H](O)[C@@H](C(=O)O)[C@H](C2)O3)C(O)C(N)C1O (stereo partly specified)
inactive: dose: 6.25 mg/kg/injection, schedule: Q01DX009 (ip), vehicle: saline with Tween-80 108 % of control | dose: 12.5 mg/kg/injection, schedule: Q01DX009 (ip), vehicle: saline with Tween-80 118 % of control | dose: 25.0 mg/kg/injection, schedule: Q01DX009 (ip), vehicle: saline with Tween-80 88 % of control | dose: 50.0 mg/kg/injection, schedule: Q01DX009 (ip), vehicle: saline with Tween-80 110 % of control | dose: 100.0 mg/kg/injection, schedule: Q01DX009 (ip), vehicle: saline with Tween-80 93 % of control

CSCS(=O)C[C@H](CO)NC(=O)/C=C/c1c(C)[nH]c(=O)[nH]c1=O (stereo partly specified)
inactive: dose: 0.02 mg/kg/injection, schedule: Q01DX009 (ip), vehicle: water 89 % of control | dose: 0.05 mg/kg/injection, schedule: Q01DX009 (ip), vehicle: water 97 % of control | dose: 0.1 mg/kg/injection, schedule: Q01DX009 (ip), vehicle: water 91 % of control | dose: 0.2 mg/kg/injection, schedule: Q01DX009 (ip), vehicle: water 94 % of control

COC1=C(N)C(=O)c2nc(-c3nc(C(=O)O)c(C)c(-c4ccc(OC)c(OC)c4O)c3N)ccc2C1=O
inactive: dose: 2.0 micrograms/kg/injection, schedule: Q01DX009 (ip), vehicle: other 102 % of control | dose: 5.0 micrograms/kg/injection, schedule: Q01DX009 (ip), vehicle: other 103 % of control and 111 % of control | dose: 10.0 micrograms/kg/injection, schedule: Q01DX009 (ip), vehicle: other 106 % of control and 116 % of control | dose: 20.0 micrograms/kg/injection, schedule: Q01DX009 (ip), vehicle: other 115 % of control and 117 % of control | dose: 30.0 micrograms/kg/injection, schedule: Q01DX009 (ip), vehicle: other 109 % of control

CC1CCC(NC(=O)N(CCCl)N=O)CC1 (stereo unspecified)
inactive: dose: 0.5 mg/kg/injection, schedule: Q01DX009 (ip), vehicle: saline 100 % of control | [9] 93 % of control | dose: 2.0 mg/kg/injection, schedule: Q01DX001 (ip), vehicle: saline 88 % of control | dose: 2.0 mg/kg/injection, schedule: Q01DX009 (ip), vehicle: saline 95 % of control | dose: 4.0 mg/kg/injection, schedule: Q01DX001 (ip), vehicle: saline 90 % of control | dose: 4.0 mg/kg/injection, schedule: Q01DX009 (ip), vehicle: saline 107 % of control | dose: 8.0 mg/kg/injection, schedule: Q01DX001 (ip), vehicle: saline 93 % of control | dose: 8.0 mg/kg/injection, schedule: Q01DX009 (ip), vehicle: saline 115 % of control | dose: 16.0 mg/kg/injection, schedule: Q01DX001 (ip), vehicle: saline 100 % of control | dose: 32.0 mg/kg/injection, schedule: Q01DX001 (ip), vehicle: saline 106 % of control

OC(CBr)C(O)C(O)C(O)CBr (stereo unspecified)
inactive: dose: 25.0 mg/kg/injection, schedule: Q01DX009 (ip), vehicle: Klucel (hydroxypropylcellulose) (HPC) 94 % of control | dose: 50.0 mg/kg/injection, schedule: Q01DX009 (ip), vehicle: Klucel (hydroxypropylcellulose) (HPC) 123 % of control | dose: 100.0 mg/kg/injection, schedule: Q01DX009 (ip), vehicle: Klucel (hydroxypropylcellulose) (HPC) 117 % of control

C[C@@H]1C[C@@H]([C@H](O)CC2CC(=O)NC(=O)C2)C(=O)[C@@H](C)C1
inactive: [7] 94 % of control | [10] 100 % of control

— PubChem BioAssay AID300 (DTP/NCI, 2004)
